Tested on: Jurkat T cells
Assay: FITC-labeled hGal-7 binding on Jurkat T cells, flow cytometry
Type: cell-based
Conditions: FITC-labeled hGal-7 0.1 μM pre-incubated with peptide, FIG. 4
Experimental: FITC conjugation and hGal-7 binding assay. To assess hGal-7 binding onto Jurkat T cells, 5 μL of a 1.25 mg/mL fluorescein isothiocyanate (FITC)/DMSO solution was added to 300 μL of 1.7 μg/μL recombinant hGal-7 in a 0.1 M NaHCO3 pH 9.2 solution and incubated for 1 h at room temperature on a roller. FITC-labeled hGal-7 was then purified using a PD-10 Sepharose® column (GE healthcare) and eluted with PBS containing 0.01% [v/v] sodium azide. FITC-labeled hGal-7 (0.1 μM) was then pre-incubated with hGal-7(129-135) (or related peptides) in 20 mM potassium phosphate buffer pH 7.1 for 1 h at 4° C. Jurkat cells (5×10^5 cells per sample) were harvested in PBS-0.01% [v/v] sodium azide and incubated for 30 min on ice with the FITC-labeled hGal-7 with and without peptides. Cells were then washed with PBS-0.01% [v/v] sodium azide and resuspended in 400 μL of the same buffer and analyzed on a FACSCalibur® (BD Biosciences®).
It was thus tested whether hGal-7(129-135) could modulate the binding of hGal-7 on Jurkat T cells, a cell model that is commonly used to test the pro-apoptotic activity of galectins. For this purpose, recombinant hGal-7 was labeled with fluorescein isothiocyante (FITC) and its binding on the surface of Jurkat T cells was measured by flow cytometry in absence or presence of increasing concentrations of hGal-7(129-135). […]

Substance: H-Leu-Asp-Ser-Val-Arg-Ile-Phe-NH2 (H-LDSVRIF-NH2; listed as Homo sapiens) [hGal-7(129-135), peptide corresponding to residues 129-135 of hGal-7]
- fluorescent intensity of Jurkat T cells due to FITC-labeled hGal-7 binding: increased the fluorescent intensity of Jurkat T cells in a concentration-dependent manner
